Earlier results, collected in patent publication US20240325431A1, “COMPOSITION FOR PURIFICATION OF BIOFLUIDS” (BEACON MEDCARE (HK) LIMITED, priority 2018, published 2024).

System: plasma protein

| Compound | binding rate to plasma protein |
| --- | --- |
| C[C@H]1O[C@@H](O[C@H]2[C@@H](O)C[C@H](O[C@H]3[C@@H](O)C[C@H](O[C@H]4CC[C@@]5(C)[C@H](CC[C@@H]6[C@@H]5CC[C@]5(C)[C@@H](C7=CC(=O)OC7)CC[C@]65O)C4)O[C@@H]3C)O[C@@H]2C)C[C@H](O)[C@@H]1O [digitoxin] | 91% |
| CN1C(C(=O)Nc2ccccn2)=C(O)c2sccc2S1(=O)=O [tenoxicam] | 99% |
